According to ChEMBL document CHEMBL5325471, “Identification of new modulator of DNA repairing pathways based on natural product (±)-peharmaline A” (Bioorg Med Chem, 2023):
The source made the active and inactive calls. The calls are words filed in the database; no cut-off is given here.

Columns and labels:
[1] = Cmax in BALB/c mouse at 20 mg/kg, ip measured upto 24 hrs by LC-MS/MS analysis; type: ADME, organism-based; design: dose 20 mg/kg, time < 24 hrs, route ip; details: in vivo
HCT-116 [2] = test: Inhibition of epithelial-to-mesenchymal transition in human HCT-116 cells assessed as upregulation of E-cadherin protein expression by immunoblot analysis; type: functional, cell-based
[3] = Tmax in BALB/c mouse at 20 mg/kg, ip measured upto 24 hrs by LC-MS/MS analysis; type: ADME, organism-based; details: in vivo
HCT-116 [4] = test: Induction of DNA damage in human HCT-116 cell assessed as increase in olive tail moment at 1 uM incubated for 24 hrs by EtBr-based alkaline Comet assay (Rvb= 0.26%); type: functional
[5] = AUC (0 to t) in BALB/c mouse at 20 mg/kg, ip measured upto 24 hrs by LC-MS/MS analysis; type: ADME, organism-based; design: time < 24 hrs, dose 20 mg/kg, route ip; details: in vivo
HCT-116 [6] = test: Inhibition of DNA repairing pathway in human HCT-116 cells assessed as downregulation of XRCC11 protein expression at 0.25 to 2 uM incubated for 24 hrs by immunoblotting analysis; type: functional, cell-based; details: dose 0.25-2 µM
HCT-116 [7] = test: Induction of DNA damage in human HCT-116 cell assessed as increase in olive tail moment at 2 uM incubated for 24 hrs by EtBr-based alkaline Comet assay (Rvb= 0.26%); type: functional
HCT-116 [8] = test: Induction of cell cycle arrest in human HCT-116 cells assessed as accumulation of cells at G2 phase at 1 uM incubated for 24 hrs by RNase/PI staining-based FACS flow cytometry analysis (reference value: 33 %); type: functional
HCT-116 [9] = test: Induction of DNA damage in human HCT-116 cell assessed as comet tail formation at 0.5 uM incubated for 24 hrs by EtBr-based alkaline Comet assay (Rvb= 2.99 %); type: functional
HCT-116 [10] = test: Inhibition of DNA repairing pathway in human HCT-116 cells assessed as increase in gamma-H2AX level at 0.25 to 2 uM incubated for 24 hrs by immunoblotting analysis; type: functional, cell-based; details: dose 0.25-2 µM
HCT-116 [11] = test: Induction of DNA damage in human HCT-116 cells assessed as increase in phosphorylated gamma-H2AX foci formation at 0.5 to 2 uM incubated for 24 hrs by DAPI staining based immunofluorescence analysis; type: functional, cell-based; details: dose 0.5-2 µM

Cmax [1]: 4490 ng/mL
Tmax [3]: 48 min
AUC(0-t) at 24 h [5]: 11000 ng·h/mL
Structure (SMILES): COC(=O)[C@]1([C@H]2CCn3c2nc2ccccc2c3=O)NCCc2c1[nH]c1ccccc21 (racemic)
inhibition (HCT-116 [2]): Active
Activity (HCT-116 [4]): 9.53%
inhibition (HCT-116 [6]): Active
Activity (HCT-116 [7]): 14.05%
Activity (HCT-116 [8]): 17%
Activity (HCT-116 [9]): 31.99%
inhibition (HCT-116 [10]): Active
Activity (HCT-116 [11]): Active
